{"source": "patent US20240199677A1", "about": "“GLYCOSYLTRANSFERASE INHIBITORS” (CALIFORNIA INSTITUTE OF TECHNOLOGY, priority 2018, published 2024)", "assay_type_in_all_cases": "cell-based", "key": {"sheep blood": {"test_system": "sheep blood", "assay": "Hemolysis, sheep blood"}, "HPAF-II": {"test_system": "HPAF-II", "assay": "Cytotoxicity MTT assay, HPAF-II", "settings": "Homo sapiens, HPAF-II; read-out: Cytotoxicity IC50 HPAF-II", "experimental": "Selected molecules were tested for cytotoxicity (IC50) in cancer and healthy cells via a MTT colorimetric assay.\nEach cell was cultured in recommended medium by ATCC, and the IC50 data were obtained with each cell line."}, "AsPc-1 cells [1]": {"test_system": "AsPc-1 cells", "assay": "Cell viability assay (FIG. 5), AsPc-1", "settings": "after 4 days; 1.77 μM, 3.54 μM, and 14.17 μM", "experimental": "The cytotoxic activity of 11 against AsPc-1 and Panc-1 cells was also measured through cell viability assays (FIG. 5). […] Similarly, the percentage of viable Panc-1 cells was near-zero after about 3 days in the presence of 11 (0.44 μM, 1.77 μM, and 7.08 μM)."}, "AsPc-1 cells [2]": {"test_system": "AsPc-1 cells", "assay": "Scratch (wound healing) assay, AsPc-1", "settings": "FIG. 9, versus Gemcitabine"}, "AsPc-1 cells [3]": {"test_system": "AsPc-1 cells", "assay": "Synergistic assay (checkerboard), 11 and Paclitaxel", "experimental": "The FIC index was calculated according to the following equation. ΣFIC=FICA+FICB=CA/MICA+CB/MICB where MICA and MICB are MIC of drugs A and B, CA and CB are the concentrations of drugs A and B used in combination. In these interaction studies, ΣFIC of less than 0.5 represents synergistic activity."}}, "data": [{"smiles": "NC[C@H]1O[C@@H](O[C@H]([C@H]2O[C@@H](n3ccc(=O)[nH]c3=O)[C@H](O)[C@@H]2O)[C@H](NCCCC(=O)NCc2ccc(N3CCC(Oc4ccc(C(F)(F)F)cc4)CC3)cc2)C(N)=O)[C@H](O)[C@@H]1O", "note": "[Compound 11]", "values": [{"measurement": "IC50", "setting": "sheep blood", "result": 206000, "unit": "nM"}, {"measurement": "IC50", "setting": "HPAF-II", "result": "< 98", "unit": "nM"}, {"measurement": "AsPc-1 cell viability", "setting": "AsPc-1 cells [1]", "result": "Nearly all AsPc-1 cells were killed"}, {"measurement": "AsPc-1 cell migration, scratch assay", "setting": "AsPc-1 cells [2]", "result": "less AsPc-1 cell migration than Gemcitabine"}, {"measurement": "Σ FIC", "setting": "AsPc-1 cells [3]; Entry 1: A 11 CA 14.2 nM + B Paclitaxel CB 0.4 nM", "result": 0.224}, {"measurement": "Σ FIC", "setting": "AsPc-1 cells [3]; Entry 2: A 11 CA 14 nM + B Paclitaxel CB 0.88 nM", "result": 0.16}, {"measurement": "Σ FIC", "setting": "AsPc-1 cells [3]; Entry 3: A 11 CA 14 nM + B Paclitaxel CB 7 nM", "result": 0.27}, {"measurement": "Σ FIC", "setting": "AsPc-1 cells [3]; Entry 4: A 11 CA 220 nM + B Paclitaxel CB 40 nM", "result": 0.224}, {"measurement": "Σ FIC", "setting": "AsPc-1 cells [3]; Entry 5: A 11 CA 110 nM + B Paclitaxel CB 88 nM", "result": 0.114}, {"measurement": "IC50", "setting": "AsPc-1 cells [3]; Homo sapiens, ASPC1, 11 alone, AsPc-1 cells, read-out: IC50 A", "result": 982, "unit": "nM"}, {"measurement": "Effect of combination of 11 and Taxol", "setting": "AsPc-1 cells [3]; all five combinations", "result": "synergistic effect"}]}]}
